We go through five molecules from patent US7547692B2, “Rifamycin analogs and uses thereof” (ActivBiotics Pharma, LLC, priority 2005, dated 2009).

In brackets after ≈: the same amount, converted by molar mass. Some results are limits rather than exact numbers.

In one data set the test system is S. aureus. Briefly: MIC assay, S. aureus. It is filed as cell-based.
For a further data set, the system named is S. pneumo. Briefly: MIC assay, S. pneumo. It is filed as cell-based.
The subject of the next data set is E. faecalis. Briefly: MIC assay, E. faecalis. It counts as cell-based.
A further data set concerns H. flu. Description: MIC assay, H. flu. It is filed as cell-based.
The test system of the next data set is E. coli. Briefly: MIC assay, E. coli. It is filed as cell-based.

One may read the melting point as the temperature, or range, at which the solid turns liquid.

For the molecule “3′-hydroxy-5′-(3-hydroxy-1-azetidinyl)benzoxazinorifamycin [Compound 1]”, the “MIC S. aureus” value in the data set with S. aureus amounted to 0.002 µg/mL. Moreover, the “MIC S. pneumo.” value in the data set with S. pneumo. worked out at 0.00012 µg/mL. For the same molecule, the “MIC E. faecalis” value against E. faecalis is 0.12 µg/mL. The “MIC H. flu” value in the data set with H. flu is 0.12 µg/mL. Also, in the data set on E. coli, the “MIC E. coli” value came to 4 µg/mL.

In turn, `CO[C@H]1/C=C/OC2(C)Oc3c(C)c(O)c4c(=O)c(c5oc6cc(N7CC8CC7CN8)cc(O)c6nc-5c4c3C2=O)NC(=O)/C(C)=C\C=C\[C@H](C)[C@H](O)[C@@H](C)[C@@H](O)[C@@H](C)[C@H](OC(C)=O)[C@@H]1C` (some centres unmarked) [Compound 3] showed a melting point of more than 330 °C.

In turn, `CO[C@H]1/C=C/OC2(C)Oc3c(C)c(O)c4c(=O)c(c5oc6cc(N7CC8CCC7CN8)cc(O)c6nc-5c4c3C2=O)NC(=O)/C(C)=C\C=C\[C@H](C)[C@H](O)[C@@H](C)[C@@H](O)[C@@H](C)[C@H](OC(C)=O)[C@@H]1C` (some centres unmarked) [Compound 4] registered a melting point of more than 300 °C.

On to `COC1C=COC2(C)Oc3c(C)c(O)c4c(=O)c(c5oc6cc(N7CC8CCC(C7)N8)cc(O)c6nc-5c4c3C2=O)NC(=O)C(C)=CC=CC(C)C(O)C(C)C(O)C(C)C(OC(C)=O)C1C` (centres unmarked) [Compound 9], for which the “MIC S. aureus” value against S. aureus came to 0.008 µg/mL (≈ 0.00878 µM). For the same molecule, in the data set with S. pneumo., the “MIC S. pneumo.” value worked out at 0.00012 µg/mL (≈ 0.000132 µM). In the data set on E. faecalis, the “MIC E. faecalis” value was 1 µg/mL (≈ 1.1 µM). In the data set on H. flu, the “MIC H. flu” value stood at 2 µg/mL (≈ 2.2 µM). In addition, the “MIC E. coli” value with E. coli was more than 8 µg/mL.

Turning to `COC1C=COC2(C)Oc3c(C)c(O)c4c(=O)c(c5oc6cc(N7CC8CCC(C7)N8)cc(O)c6nc-5c4c3C2=O)NC(=O)C(C)=CC=CC(C)C(O)C(C)C(O)C(C)C(O)C1C` (centres unmarked) [Compound 10], the “MIC S. aureus” value in the data set on S. aureus came out at 0.015 µg/mL (≈ 0.0173 µM). In the data set with S. pneumo., the “MIC S. pneumo.” value was determined as 0.001 µg/mL (≈ 0.00115 µM). In the data set on E. faecalis, the “MIC E. faecalis” value turned out to be 0.12 µg/mL (≈ 0.138 µM). The “MIC H. flu” value against H. flu is 0.25 µg/mL (≈ 0.288 µM). Further, the “MIC E. coli” value with E. coli came out at 4 µg/mL (≈ 4.6 µM).
